Results published in patent US11274083B2, “Substituted thiophenyl uracils, salts thereof and the use thereof as herbicidal agents” (Syngenta Crop Protection AG, priority 2017, dated 2022).

Assays:
Format in all cases: in vivo
Polygonum convolvulus = assay: Herbicidal action post-emergence, greenhouse pot test; conditions: application rate 20 g/ha
In short: (§1)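 Visual efficacy scoring (0% like untreated, 100% plant death) about 3 weeks post-treatment. Application, at ≤80 g/ha, was a post-emergence spray of wettable-powder or emulsion-concentrate formulations in water with 0.5% additive at 600 L/ha onto one-leaf-stage plants grown 2–3 weeks from seed in sandy loam.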

Pharbitis purpurea = assay: as above; conditions: application rate 20 g/ha
In short: as §1

Echinochloa crus-galli = assay: as above; conditions: application rate 20 g/ha
In short: as §1

Setaria viridis = assay: as above; conditions: application rate 20 g/ha
In short: as §1

Veronica persica = assay: as above; conditions: application rate 20 g/ha
In short: as §1

Stellaria media = assay: as above; conditions: application rate 20 g/ha
In short: as §1

Lolium rigidum = assay: as above; conditions: application rate 20 g/ha
In short: as §1

Abutilon theophrasti = assay: as above
In short: as §1

Viola tricolor = assay: as above; conditions: application rate 20 g/ha
In short: as §1

Alopecurus myosuroides = assay: as above; conditions: application rate 20 g/ha, scored visually after about 3 weeks vs untreated controls
In short: as §1

Matricaria inodora = assay: as above; conditions: application rate 20 g/ha
In short: as §1

Amaranthus retroflexus = assay: as above; conditions: application rate 20 g/ha
In short: as §1

Digitaria sanguinalis = assay: as above; conditions: application rate 20 g/ha
Oryza sativa = assay: Crop compatibility post-emergence, greenhouse pot test
In short: (§2)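 Crop tolerance is rated as visual percent injury relative to untreated plants, about 3 weeks after a post-emergence foliar spray at the one-leaf stage. Sprays use WP or EC formulations diluted in water with 0.5% additive at 600 L/ha; plants are grown in sandy loam pots under greenhouse conditions.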

Glycine max = assay: as above; conditions: application rate 5 g/ha
In short: as §2

Triticum aestivum = assay: as above
In short: as §2

Zea mays = assay: as above
In short: as §2

Glycine max (Efficacy in %) (Glycine max) [%] | Triticum aestivum (Efficacy in %) (Triticum aestivum; application rate 5 g/ha) [%] | Oryza sativa (Efficacy in %) (Oryza sativa; application rate 20 g/ha) [%] | Triticum aestivum (Efficacy in %) (Triticum aestivum; application rate 20 g/ha) [%] | Zea mays (Efficacy in %) (Zea mays; application rate 20 g/ha) [%] | Compound | Polygonum convolvulus (Efficacy in %) (Polygonum convolvulus) [%] | Pharbitis purpurea (Efficacy in %) (Pharbitis purpurea) [%] | Echinochloa crus-galli (Efficacy in %) (Echinochloa crus-galli) [%] | Setaria viridis (Efficacy in %) (Setaria viridis) [%] | Veronica persica (Efficacy in %) (Veronica persica) [%] | Stellaria media (Efficacy in %) (Stellaria media) [%] | Abutilon theophrasti (Efficacy in %) (Abutilon theophrasti; application rate 20 g/ha) [%] | Viola tricolor (Efficacy in %) (Viola tricolor) [%] | Alopecurus myosuroides (Efficacy in %) (Alopecurus myosuroides) [%] | Matricaria inodora (Efficacy in %) (Matricaria inodora) [%] | Amaranthus retroflexus (Efficacy in %) (Amaranthus retroflexus) [%] | Digitaria sanguinalis (Efficacy in %) (Digitaria sanguinalis) [%] | Abutilon theophrasti (Efficacy in %) (Abutilon theophrasti; application rate 70 g/ha) [%] | other results
20 | 20 |  |  |  | CNC(=O)CCOC(=O)C(C)Sc1cc(-n2c(=O)cc(C(F)(F)F)n(C)c2=O)c(F)cc1Cl (centres unmarked) [I.1-152] | 100 | 100 | 100 | 100 | 100 | 100 | 100 | 100 | 80 | 100 | 100 | 100 |  | Lolium rigidum (Efficacy in %) (Lolium rigidum): 80%; Oryza sativa (Efficacy in %) (Oryza sativa; application rate 5 g/ha): 10%
20 |  | 10 | 20 |  | CCC(Sc1cc(-n2c(=O)cc(C(F)(F)F)n(C)c2=O)c(F)cc1Cl)C(=O)OCCC(=O)OCc1ccccc1 (centres unmarked) [I.2-6] | 100 | 100 | 100 | 100 | 100 | 100 |  | 100 | 80 | 100 | 100 | 80 | 100 | Zea mays (Efficacy in %) (Zea mays; application rate 5 g/ha): 0%
20 |  | 20 | 10 | 20 | CCOC(=O)COC(=O)C(CC)Sc1cc(-n2c(=O)cc(C(F)(F)F)n(C)c2=O)c(F)cc1Cl (centres unmarked) [I.2-43, 2-Ethoxy-2-oxoethyl 2-({2-chloro-4-fluoro-5-[3-methyl-2,6-dioxo-4-(trifluoromethyl)-3,6-dihydropyrimidin-1(2H)-yl]phenyl}sulfanyl)butanoate] | 100 | 100 | 100 | 100 | 100 | 100 | 100 | 100 |  | 100 | 100 |  |  | 
20 | 20 | 20 |  | 20 | CCCCC(Sc1cc(-n2c(=O)cc(C(F)(F)F)n(C)c2=O)c(F)cc1Cl)C(=O)OCCC(=O)OCc1ccccc1 (centres unmarked) [I.47-6] | 100 | 100 |  | 100 | 100 | 80 |  | 100 |  |  | 100 | 80 | 100 | 
